Data as given in US20120245201A1, “Isopropylphenidate for Treatment of Attention-Deficit/Hyperactivity Disorder and Fatigue-Related Disorders and Conditions” (priority 2009, published 2012).

Experiments:
[1] = test system: NE uptake, synaptosomes prepared from the rat hypothalamus; assay: Norepinephrine uptake into synaptosomes; type: cell-based
Description: (§1) Transporter Binding and Cellular Uptake. All described monoamine transporter binding studies as well as cellular uptake assays were performed in duplicate by CEREP (Celle l'Evescault, France) and are described below. Further details of all assays performed may be accessed at the CEREP web site (world-wide-web at cerep.com). Cellular-based assays were conducted to provide complementary in vitro functional measures to complement the standard transporter assays as well as to provide direct comparisons of the homologs IPH with MPH with regard to DA, NE, and 5-HT uptake in synaptosomal preparations.

[2] = test system: 5-HT uptake, synaptosomes prepared from the rat brain; assay: Serotonin uptake into synaptosomes; type: cell-based
Description: as §1
Serotonin Uptake. The assessment of the relative effects of IPH and MPH on 5-HT uptake utilized measures of [^3H]5-HT incorporation into synaptosomes prepared from the rat brain. […] Following incubation, the samples were filtered, counted using a scintillation instrument, and the results expressed as a percent inhibition of the control uptake of [^3H]5-HT. The standard inhibitory reference compound was the TCA imipramine, which was tested in each experiment at several concentrations to obtain an inhibition curve from which its IC50 value was calculated.

[3] = target: T1, human carboxylesterase 1 (hCES1) (Homo sapiens, UniProt P23141); assay: Hydrolysis to ritalinic acid by recombinant hCES1 (s9 fraction of transfected cells); type: in vitro ADME; details: 1 mM substrate, 60 min
T1 construct: expressed in transfected cells
T1 sequence (P23141 18-567): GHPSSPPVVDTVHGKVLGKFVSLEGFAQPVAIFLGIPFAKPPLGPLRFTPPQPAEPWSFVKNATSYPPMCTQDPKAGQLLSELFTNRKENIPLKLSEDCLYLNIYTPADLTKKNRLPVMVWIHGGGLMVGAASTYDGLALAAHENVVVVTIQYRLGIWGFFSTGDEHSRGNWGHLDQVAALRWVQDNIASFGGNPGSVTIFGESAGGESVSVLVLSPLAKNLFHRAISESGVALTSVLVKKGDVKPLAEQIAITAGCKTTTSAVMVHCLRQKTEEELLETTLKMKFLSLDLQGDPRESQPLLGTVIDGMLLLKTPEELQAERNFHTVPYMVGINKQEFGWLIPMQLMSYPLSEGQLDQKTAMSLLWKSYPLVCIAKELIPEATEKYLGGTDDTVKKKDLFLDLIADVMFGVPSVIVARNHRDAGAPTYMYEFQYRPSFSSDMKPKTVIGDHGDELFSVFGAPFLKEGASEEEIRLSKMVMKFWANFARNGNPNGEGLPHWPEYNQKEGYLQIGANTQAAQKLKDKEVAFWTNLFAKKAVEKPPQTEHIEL
Description: (§2) FIG. 2—Hydrolysis of methylphenidate (MPH) and isopropylphenidate (IPH) by recombinant human CES1, HLM, HIM. After incubation with CES 1 transfected human cells, HLM, and HIM at 37° C. for 60 min, the metabolite RA produced via hydrolysis of MPH and IPH was determined by HPLC. Data are presented as mean±SEM of 3 to 6 independent experiments.
(§3) Determination of Relative Hydrolytic Rates of MPH and IPH. The assessment of relative rates of hydrolysis of the two ester compounds utilized both cell culture and human liver microsomes (HLM) and human intestinal microsomes (HIM). The human carboxylesterase 1 (hCES1) s9 fraction was prepared utilizing a novel method developed in the inventors' laboratory previously (Zhu et al., 2008). Hydrolysis of IPH and MPH by hCES1, HLM, and human intestinal microsomes was assessed by incubating the substrates with the respective enzymes and measuring the formation of the major metabolite RA formed via ester hydrolysis. Briefly, 50 μl of freshly prepared substrates (IPH and MPH) was mixed with 50 μl of enzymes in 1.5 ml Eppendorf tubes yielding a total volume of 100 μl. […] Concentrations of the primary hydrolytic product of the two compounds, RA were determined utilizing a validated HPLC method previously described.

[4] = test system: human liver microsomes (HLM); assay: Hydrolysis to ritalinic acid by human liver microsomes; type: in vitro ADME; details: 1 mM substrate, 0.2 mg/ml HLM, 37° C., 60 min
Description: as §2, §3

[5] = target: T2, hCES1 (Homo sapiens, UniProt P23141); assay: Transesterification potential in the presence of ethanol, s9 fraction of hCES1-transfected cells; details: for effect of ethanol on formation of the hydrolytic product RA: hCES1 s9; for EPH formation with ethanol when hCES1 was not present: incubation with ethanol, no hCES1
T2 sequence (P23141 18-567): T1 sequence (P23141 18-567)
Description: FIG. 3—Transesterification potential of isopropylphenidate (IPH) versus methylphenidate (MPH) by s9 fractions of CES1 transfected cells in the presence of ethanol. MPH (1 mM) or IPH (1 mM) was incubated with s9 fractions of hCES1 overexpressing cells (2 mg/ml) in the presence or absence of ethanol (10 mM) at 37° C. for 30 min. The transesterification product EPH and hydrolytic metabolite RA were analyzed utilizing established HPLC assays. […] Data are expressed as mean±SEM of three independent experiments.
An In Vitro Investigation of the Transesterification Potential of Isopropylphenidate versus Methylphenidate in the Presence of Ethanol. The s9 fraction of hCES1-transfected cells, d1-MPH), dl-IPH, and ethanol working solution were prepared in DPBS containing 20 mM HEPES, pH7.4. The reaction was initiated by mixing 200 μl of s9 fraction, 100 μl of substrates (MPH or IPH) and 100 μl of ethanol. The final concentrations of s9 fraction protein, MPH, IPH, and ethanol were 2 mg/ml, 1 mM, 1 mM, and 10 mM, respectively. After incubation at 37° C. for 1 h, the reaction was terminated by adding a four-fold concentration of ice-cold methanol. The samples were then centrifuged at 16,000 g for 5 min, and the resulting supernatant was subjected to HPLC analysis to assess each for the formation and/or concentration of the hydrolytic product of both MPH and IPH, and common metabolite RA. Additionally, the samples were assayed for the presence of the transesterification metabolite ethylphenidate (EPH). Further, the s9 fraction prepared from the vector-transfected cells was included in this study as a control for any non-enzymatic hydrolysis which might occur. The hCES1 mediated MPH and IPH hydrolysis was estimated by deducting the amounts of RA produced in the vector s9 samples from the RA formation observed in the hCES1 s9 samples.

Structure (SMILES) | % inhibition of control specific binding; [3H]NE incorporation into synaptosomes ([1]; 10 μM) [%] | % inhibition of control specific binding; [3H]5-HT incorporation into synaptosomes ([2]; 10 μM) [%] | substrate quality for hCES1 hydrolysis ([3]; 37° C.) | resistance to hydrolysis by HLM [4] | velocity of hCES1-mediated transesterification to EPH ([5]; 1 mM substrate, 10 mM ethanol, 2 mg/ml s9 protein, 37° C.) [pmole/min/mg protein] | effect of ethanol on formation of the hydrolytic product RA ([5]; 10 mM ethanol) | EPH formation with ethanol when hCES1 was not present [5] | inhibition at 10 µM ([1]; read-out: % inhibition of control specific binding, [3H]NE incorporation into synaptosomes) [%] | inhibition at 10 µM ([2]; read-out: % inhibition of control specific binding, [3H]5-HT incorporation into synaptosomes) [%] | catalytic efficiency of hCES1-mediated hydrolysis, MPH relative to IPH ([3]; 0.5 mg/ml hCES1, 37° C., RA formation by HPLC)
CC(C)OC(=O)C(c1ccccc1)C1CCCCN1 (racemic) [IPH, dl-threo-α-phenyl-2-piperidineacetic acid isopropyl ester] | 62 | 28 | poor substrate of hCES1 | most resistant substrate to HLM | 47.5±3.3 | significantly decreased | no EPH formation was observed |  |  | 
COC(=O)C(c1ccccc1)C1CCCCN1 (racemic) [MPH, dl-threo-methylphenidate, reference compound] |  |  |  |  |  | significantly decreased | no EPH formation was observed | 117 | 35 | approximately 10 fold
